Results: US20230373940A1, “CARBOXYLIC DIARYLTHIAZEPINEAMINES AND USES THEREOF” (Kures, Inc., priority 2020, published 2023)
Where a name gives a salt, the structure may show the parent alone.

Assays:
[1] = molecular target: T1, human delta opioid receptor (DOR) (Homo sapiens, UniProt P41143); assay: BRET assay measuring G protein activation, agonist activity at human DOR; format: cell-based
T1 construct: expressed in transfected cells
Protocol: (§1) The diarylthiazepinamine carboxylic acids (9) were tested for agonist activity at the human mu opioid receptor (MOR) and delta opioid receptor (DOR) using bioluminescence resonance energy transfer (BRET) assays measuring G protein activation as previously described (Table 1) (Rives, M.-L. et al. 2012; Negri, A. et al. 2013).
(§2) Transfection. Human MOR cDNA was transfected alongside […] with RLuc8 inserted at position 91 (GαoB-RLuc8), Gβ1 (β1), and Gγ2 fused to the full-length mVenus at its N terminus (mVenus-γ2) into HEK-293T cells (5×10^6 cells/plate) in 10-cm dishes using PEI (Polysciences Inc.; Warrington, PA) in a 1:1 ratio diluted in Opti-MEM (Life Technologies Corp.; Grand Island, NY) to assay for G protein activation as described previously (Rives, M.-L. et al. 2012; Negri, A. et al. 2013). Cells were maintained in Dulbecco's Modified Eagle Medium (high glucose #11965; Life Technologies) supplemented with 10% FBS (Premium Select, Atlanta Biologicals; Atlanta, GA) and 100 U/mL penicillin and 100 μg/mL streptomycin (#15140, Life Technologies). After 24 hours the media was changed, and the experiment was performed 24 hours later (48 hours after transfection).
(§3) BRET. Transfected cells were dissociated and re-suspended in phosphate-buffered saline (PBS). Approximately 200,000 cells/well were added to a black-framed, white well 96-well plate (#60050; Perkin Elmer; Waltham, MA). The microplate was centrifuged and the cells were re-suspended in PBS. Then 5 μM of the luciferase substrate coelenterazine H was added to each well for 5 minutes. Following coelenterazine H addition, ligands were added and the BRET signal was measured at 5 minutes on a PHERAstar FS plate reader. Quantification of the BRET signal required calculating the ratio of the light emitted by the energy acceptor, mVenus (510-540 nm), over the light emitted by the energy donor, RLuc8 (485 nm). […] Dose response curves were fit using a three-parameter logistics equation in GraphPad Prism 6.

MOR = MOR (Homo sapiens, UniProt P35372); details: Gassaway, M. M. et al. 2014; cited from earlier work
Chain of MOR (P35372 whole entry): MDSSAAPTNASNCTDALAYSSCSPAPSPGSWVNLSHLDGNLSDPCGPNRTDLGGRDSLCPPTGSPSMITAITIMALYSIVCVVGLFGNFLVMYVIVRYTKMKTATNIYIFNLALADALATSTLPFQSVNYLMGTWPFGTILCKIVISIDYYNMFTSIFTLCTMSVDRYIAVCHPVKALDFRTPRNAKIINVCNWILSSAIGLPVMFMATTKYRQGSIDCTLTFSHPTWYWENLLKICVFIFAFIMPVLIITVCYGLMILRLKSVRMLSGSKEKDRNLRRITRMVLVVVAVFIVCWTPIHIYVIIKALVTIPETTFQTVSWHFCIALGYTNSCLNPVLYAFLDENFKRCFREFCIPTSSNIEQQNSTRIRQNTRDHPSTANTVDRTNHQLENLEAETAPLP

DOR = DOR (Homo sapiens, UniProt P41143); details: Gassaway, M. M. et al. 2014; cited from earlier work
Chain of DOR (P41143 whole entry): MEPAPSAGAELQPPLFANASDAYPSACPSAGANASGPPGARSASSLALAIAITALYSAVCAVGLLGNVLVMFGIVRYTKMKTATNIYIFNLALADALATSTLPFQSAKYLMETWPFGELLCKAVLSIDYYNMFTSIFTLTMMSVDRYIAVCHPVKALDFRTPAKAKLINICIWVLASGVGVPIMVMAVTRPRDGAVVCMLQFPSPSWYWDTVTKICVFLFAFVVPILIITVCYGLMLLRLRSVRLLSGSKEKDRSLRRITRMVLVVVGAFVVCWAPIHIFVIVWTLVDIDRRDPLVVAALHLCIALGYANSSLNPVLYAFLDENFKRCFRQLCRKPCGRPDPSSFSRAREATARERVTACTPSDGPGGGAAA

[2] = molecular target: T2, human mu opioid receptor (MOR) (Homo sapiens, UniProt P35372); assay: BRET assay measuring G protein activation, agonist activity at human MOR (transfected HEK-293T cells); format: cell-based; details: for MOR potency relative to analogs lacking substitution at position 2: dihalo-substituted core
T2 construct: expressed in transfected cells; host or cells: HEK-293T
T2 sequence (P35372 whole entry): as the sequence (P35372 whole entry) above
Protocol: as §1, §2, §3
The additional diarylthiazepinamine carboxylic acids (9i, 9j, 9k, and 91) were tested for agonist activity at the human mu opioid receptor (MOR) using bioluminescence resonance energy transfer (BRET) assays measuring G protein activation (Table 2) as previously described (Rives, M.-L. et al. 2012; Negri, A. et al. 2013; Example 2 of the present application).

[3] = Solubility Determination (Method B), distilled water, orbital shaker 2 h; format: physicochemical; details: neutral unbuffered water, vs iodotianeptine
Protocol: (§4) Solubility Determination (Method B). A quantity of the appropriate compound sufficient to saturate the resulting solution was added to distilled water (0.50 mL) and the mixture agitated on an orbital shaker for 2 h at room temperature (20° C.). The mixture was then centrifuged for 5 min. at 21,000×g and the supernatant was carefully removed by syringe and passed through a […] syringe filter. An aliquot (300 μL) of the filtered supernatant was concentrated in vacuo and the mass of the residual solids determined in order to calculate the solubility.

male C57BL/6 mice = assay: Analgesic activity in hot plate assay; format: in vivo, mouse; details: for ED50: Mus musculus, sc, hot plate 55° C., male C57BL/6 mice; for Analgesic activity in the mouse hot plate assay: much higher potency than tianeptine
Protocol: Analgesic Activity in Hot Plate Assay. Male C57BL/6 mice were timed for latency to jump on a hot-plate apparatus set to 55° C., using a 30 s cutoff to prevent tissue damage. Following a baseline test, animals were injected subcutaneously (s.c.) with escalating doses of drug and tested at […] (time of maximal effect). Dose-response curves were fit via nonlinear regression using GraphPad Prism (La Jolla, CA).

[4] = for Solubility, 100 mM HCl, pH 1 (mg/mL): pH 1, 25° C.
Protocol: Solubility Determination. Test compounds (4 mg) were added to 200 μL of one of the tested aqueous solutions (hereinafter—buffer): 100 mM aqueous HCl (pH 1) or 100 mM Na-phosphate buffer (pH 7). The obtained suspensions/solutions with the theoretical concentration of 20 mg/mL were further allowed to equilibrate at 25° C. on a thermostatic orbital shaker for 24 hours and then centrifuged at 6000 rpm for 4 minutes and filtered through HTS filter plates using a vacuum manifold. In parallel, compound dilutions in 50% acetonitrile/HCl and 30% acetonitrile/Na-phosphate buffer mixes were prepared to theoretical concentrations of 0 mg/mL (blank), 0.1 mg/mL, 0.2 mg/mL, and 0.4 mg/mL in duplicates to generate calibration curves falling within the optimum UV absorption range. The filtrates of test compounds were diluted 100-fold with acetonitrile-buffer mixtures before measuring. The filtered supernatant test samples were transferred to 96-well plates and measured for absorbance in the 200-550 nm range with 5 nm step increment. The concentrations of compounds in supernatants were calculated using the measured absorbance and the previously determined calibration curve. Proper absorbance wavelengths for calculations were selected for each compound manually based on absorbance maxima (absolute absorbance unit values for the minimum and maximum concentration points within 0-2.5 OD range).

[5] = Solubility Determination (Method A), distilled water, stirred 24 h; format: physicochemical
Protocol: as §4, with “(Method A).” for “(Method B).”, “mixture was stirred vigorously” for “mixture agitated on an orbital shaker”, “for 24” for “for 2”, “centrifuged for 3 min. at 21,000×g and the stir bar was carefully removed. The mixture was then centrifuged again” for “centrifuged”

[6] = average of 2 independent trials

T1 sequence (P41143 whole entry): as the sequence (P41143 whole entry) above

## CSc1ccc2c(c1)S(=O)(=O)N(C)c1ccccc1C2NCCCCCCC(=O)O (stereo not drawn) [Compound 9c, 7-((6-Methyl-3-(methylthio)-5,5-dioxido-6,11-dihydrodibenzo[c,f][1,2]thiazopin-11-yl)amino)heptanoic acid]
[1]
  Human DOR agonist type (partial / full agonist): partial agonist
[1]; FIG. 1
  DOR Emax relative to the control agonist DPDPE: lesser Emax than the control agonist DPDPE

## CN1c2ccccc2C(NCCCCCCC(=O)O)c2ccc(Cl)cc2S1(=O)=O (stereo not drawn) [Tianeptine, tianeptine]
MOR
  Agonist activity at the MOR (reported): full agonist
DOR
  Agonist activity at the DOR (reported): low potency agonist activity

## CN1c2ccccc2C(NCCCCCCC(=O)O)c2cc(F)c(I)cc2S1(=O)=O.Cl (stereo not drawn) [Compound 9k, 7-((2-fluoro-3-iodo-6-methyl-5,5-dioxido-6,11-dihydrodibenzo[c,f][1,2]thiazopin-11-yl)amino)heptanoic acid hydrochloride salt]
[2]
  MOR potency relative to analogs lacking substitution at position 2: equipotent or more potent
[3]
  Fold more soluble than analogous monohalo counterpart: 2-3 fold
Male C57BL/6 mice
  ED50: 1.7 mg/kg
  Analgesic activity in the mouse hot plate assay: potent analgesics

## CN1c2ccccc2C(NCCCCCCCCCC(=O)O)c2ccc(I)cc2S1(=O)=O (racemic) [Compound 9g, 10-((3-Iodo-6-methyl-5,5-dioxido-6,11-dihydrodibenzo[c,f][1,2]thiazopin-11-yl)amino)decanoic acid hydrochloride salt]
[2]
  EC50: 26.6 ± 1.8 nM
[1]
  EC50: 262 ± 25 nM

## CN1c2ccccc2C(NCCCCCCC(=O)O)c2ccc(I)cc2S1(=O)=O.Cl (stereo not drawn) [iodotianeptine, reference compound]
[4]; [6]
  Solubility, 100 mM HCl, pH 1 (mg/mL): <0.1 mg/mL

## CCOC(=O)CCCCCCNC1c2ccccc2N(C)S(=O)(=O)c2cc(SC)ccc21 (stereo not drawn) [Ester Analog of 9c, Ethyl 7-((6-methyl-3-(methylthio)-5,5-dioxido-6,11-dihydrodibenzo[c,f][1,2]thiazepin-11-yl)amino)heptanoate]
[1]
  Human DOR agonist type (partial / full agonist): partial agonist

## CN1c2ccccc2C(NCCCCCCC(=O)O)c2cc(Cl)c(Cl)cc2S1(=O)=O.Cl (stereo not drawn) [Compound 9i, 7-((2,3-dichloro-6-methyl-5,5-dioxido-6,11-dihydrodibenzo[c,f][1,2]thiazopin-11-yl)amino) heptanoic acid hydrochloride salt]
[2]
  MOR potency relative to analogs lacking substitution at position 2: equipotent or more potent

## CN1c2ccccc2C(NCCCCCCC(=O)O)c2ccc(Br)cc2S1(=O)=O.Cl (stereo not drawn) [bromotianeptine, reference compound]
[4]; [6]
  Solubility, 100 mM HCl, pH 1 (mg/mL): <0.1 mg/mL

## CN1c2ccccc2C(NCCCCCCC(=O)[O-])c2ccc(Cl)cc2S1(=O)=O.[Na+] (stereo not drawn) [Tianeptine (Na salt), Tianeptine, reference compound]
Male C57BL/6 mice
  ED50: 15 mg/kg

## CN1c2ccccc2C(NCCCCCCC(=O)O)c2cc(F)c(Cl)cc2S1(=O)=O.Cl (stereo not drawn) [Compound 9j, 7-((3-chloro-2-fluoro-6-methyl-5,5-dioxido-6,11-dihydrodibenzo[c,f][1,2]thiazopin-11-yl)amino) heptanoic acid hydrochloride salt]
[2]
  MOR potency relative to analogs lacking substitution at position 2: equipotent or more potent
[4]; pH 1
  Fold more soluble than monohalo counterpart at pH 1: 8 fold

## CN1c2ccccc2C(NCCCCCCCC(=O)O)c2ccc(I)cc2S1(=O)=O (racemic) [Compound 9e, 8-((3-Iodo-6-methyl-5,5-dioxido-6,11-dihydrodibenzo[c,f][1,2]thiazopin-11-yl)amino) octanoic acid hydrochloride salt]
[2]
  EC50: 24.2 ± 11 nM
[1]
  EC50: 724 ± 99 nM

## CN1c2ccccc2C(NCCCCC(=O)O)c2cc(F)c(Br)cc2S1(=O)=O.Cl (stereo not drawn) [Compound 91, 5-((3-bromo-2-fluoro-6-methyl-5,5-dioxido-6,11-dihydrodibenzo[c,f][1,2]thiazepin-11-yl)amino) pentanoic acid hydrochloride salt]
[2]
  MOR potency relative to analogs lacking substitution at position 2: equipotent or more potent

## CN1c2ccccc2C(NCCCCCCC(=O)O)c2cc(F)c(Br)cc2S1(=O)=O.Cl (stereo not drawn) [Compound 9b, 7-((3-Bromo-2-fluoro-6-methyl-5,5-dioxido-6,11-dihydrodibenzo[c,f][1,2]thiazopin-11-yl)amino) heptanoic acid hydrochloride salt]
[2]
  MOR potency relative to analogs lacking substitution at position 2: equipotent or more potent
[5]; neutral unbuffered water, vs bromotianeptine
  Fold more soluble than analogous monohalo counterpart: 2-3 fold
[5]; neutral water, room temperature (20° C.), Method A, average of 2 independent trials
  Aqueous Solubility (mg/mL @ 20° C.): 9.8 mg/mL
[4]; [6]
  Solubility, 100 mM HCl, pH 1 (mg/mL): 1.1 mg/mL
[4]; pH 7, 25° C., average of 2 independent trials
  Solubility, 100 mM Na phosphate buffer, pH 7 (mg/mL): 0.84 mg/mL
Male C57BL/6 mice
  ED50: 5.1 mg/kg
  Analgesic activity in the mouse hot plate assay: potent analgesics
